Laboratory results as given in ChEMBL document CHEMBL5352468, “Rational design, synthesis, and pharmacological evaluation of a cohort of novel beta-adrenergic receptors ligands enables an assessment of structure-activity relationships” (Eur J Med Chem, 2023).

Experiments:
Type in all cases: functional, cell-based
[1] = target: T1, Beta-3 adrenergic receptor (Homo sapiens, UniProt P13945); assay: Antagonist activity at human beta3-adrenergic receptor expressed in CHO-K1 cells co-expressing CRE-SPAP reporter gene assessed as inhibition of fenoterol-induced CRE-SPAP production by measuring rightward shift of the fenoterol concentration response curve measured after 5 hrs incubation
T1 sequence (P13945 whole entry): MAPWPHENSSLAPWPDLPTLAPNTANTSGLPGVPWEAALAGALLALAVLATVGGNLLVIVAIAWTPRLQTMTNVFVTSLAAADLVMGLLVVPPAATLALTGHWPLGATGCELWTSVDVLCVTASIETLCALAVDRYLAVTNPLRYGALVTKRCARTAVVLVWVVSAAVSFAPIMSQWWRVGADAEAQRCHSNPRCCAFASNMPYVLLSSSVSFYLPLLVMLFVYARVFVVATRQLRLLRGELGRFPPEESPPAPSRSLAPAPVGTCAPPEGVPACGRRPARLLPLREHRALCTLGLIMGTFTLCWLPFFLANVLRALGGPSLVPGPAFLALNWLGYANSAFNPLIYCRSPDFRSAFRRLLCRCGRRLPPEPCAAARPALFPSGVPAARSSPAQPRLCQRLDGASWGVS

[2] = target: T2, Beta-1 adrenergic receptor (Homo sapiens, UniProt P08588); assay: Antagonist activity at human beta1-adrenergic receptor expressed in CHO-K1 cells co-expressing CRE-SPAP reporter gene assessed as inhibition of fenoterol-induced CRE-SPAP production by measuring rightward shift of the fenoterol concentration response curve measured after 5 hrs incubation
T2 sequence (P08588 whole entry): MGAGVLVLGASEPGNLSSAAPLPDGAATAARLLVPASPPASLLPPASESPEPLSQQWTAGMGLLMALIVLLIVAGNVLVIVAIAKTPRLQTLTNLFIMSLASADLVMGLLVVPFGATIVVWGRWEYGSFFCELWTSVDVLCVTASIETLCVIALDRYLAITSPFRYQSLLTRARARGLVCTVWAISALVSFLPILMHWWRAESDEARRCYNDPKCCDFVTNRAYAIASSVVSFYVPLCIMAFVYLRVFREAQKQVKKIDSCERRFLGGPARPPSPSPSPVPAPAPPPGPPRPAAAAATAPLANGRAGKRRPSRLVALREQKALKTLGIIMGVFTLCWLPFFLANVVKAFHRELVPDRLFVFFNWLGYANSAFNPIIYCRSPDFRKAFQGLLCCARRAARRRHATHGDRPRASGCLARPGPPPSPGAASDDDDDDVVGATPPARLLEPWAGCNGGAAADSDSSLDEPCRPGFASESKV

[3] = target: T3, Beta-2 adrenergic receptor (Homo sapiens, UniProt P07550); assay: Antagonist activity at human beta2-adrenergic receptor expressed in CHO-K1 cells co-expressing CRE-SPAP reporter gene assessed as inhibition of fenoterol-induced CRE-SPAP production by measuring rightward shift of the fenoterol concentration response curve measured after 5 hrs incubation
T3 sequence (P07550 whole entry): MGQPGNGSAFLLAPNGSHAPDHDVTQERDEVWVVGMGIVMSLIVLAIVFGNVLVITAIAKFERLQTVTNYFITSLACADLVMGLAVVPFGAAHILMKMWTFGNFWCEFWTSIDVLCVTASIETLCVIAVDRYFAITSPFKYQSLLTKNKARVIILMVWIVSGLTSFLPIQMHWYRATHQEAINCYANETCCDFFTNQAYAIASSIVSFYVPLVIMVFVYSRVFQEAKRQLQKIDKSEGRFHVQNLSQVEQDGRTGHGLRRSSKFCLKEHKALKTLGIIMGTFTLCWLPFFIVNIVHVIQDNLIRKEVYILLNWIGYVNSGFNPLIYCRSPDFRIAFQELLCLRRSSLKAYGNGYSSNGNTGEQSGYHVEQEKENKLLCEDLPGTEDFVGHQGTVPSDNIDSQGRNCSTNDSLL

[4] = target: T2, Beta-1 adrenergic receptor; assay: Agonist activity at human beta1-adrenergic receptor expressed in CHO-K1 cells co-expressing CRE-SPAP reporter gene assessed as CRE-SPAP production measured after 5 hrs incubation
[5] = target: T1, Beta-3 adrenergic receptor; assay: Agonist activity at human beta3-adrenergic receptor expressed in CHO-K1 cells co-expressing CRE-SPAP reporter gene assessed as CRE-SPAP production measured after 5 hrs incubation
[6] = target: T3, Beta-2 adrenergic receptor; assay: Agonist activity at human beta2-adrenergic receptor expressed in CHO-K1 cells co-expressing CRE-SPAP reporter gene assessed as CRE-SPAP production measured after 5 hrs incubation

SMILES	Kd ([1]; read-out: Kd) [nM]	Kd ([2]; read-out: pKd (converted)) [nM]	Kd ([3]; read-out: pKd (converted)) [nM]	other results
COC(=O)[C@H](N)Cc1ccc(OC[C@@H](O)CNCC2COc3ccccc3O2)cc1 (stereo partly drawn)	> 10000			
COc1ccc(S(=O)(=O)NCCCCNC[C@H](O)COc2ccc3c(c2)OC(C)(C)CC3=O)cc1	> 10000			Kd ([2]; read-out: Kd): > 10000 nM
CC1(C)CC(=O)c2ccc(OC[C@@H](O)CNCCCN3C(=O)c4ccccc4C3=O)cc2O1				Kd ([2]; read-out: Kd): > 10000 nM
CC1(C)CC(=O)c2ccc(OC[C@@H](O)CNCCCc3ccccc3)cc2O1	> 10000			
O[C@@H](CNCC1COc2ccccc2O1)COc1ccnc2ccccc12 (stereo partly drawn)		6030		
O=c1ccc2ccc(OC[C@@H](O)CNCC3COc4ccccc4O3)cc2o1 (stereo partly drawn)			6610	
CS(=O)(=O)c1ccc(CCNC[C@H](O)COc2ccc3ccc(=O)oc3c2)cc1	> 10000			Kd ([3]; read-out: Kd): > 10000 nM
CC1(C)CC(=O)c2ccc(OC[C@H](O)CNCCCc3ccccc3)cc2O1	> 10000			
O[C@@H](CNCC1COc2ccccc2O1)COc1ccc2c(c1)OCO2 (stereo partly drawn)		1580	1550	EC50 [4]: 316 nM
O=c1ccc2ccc(OC[C@@H](O)CNCCc3ccc4c(c3)OCO4)cc2o1	> 10000	5620		
CCc1ccccc1OC[C@@H](O)CNCCC(c1ccccc1)c1ccccc1		135		EC50 [4]: 309 nM
O=C1COc2cc(OC[C@@H](O)CNCC3COc4ccccc4O3)ccc21 (stereo partly drawn)			3630	
O[C@@H](CNCC1COc2ccccc2O1)COc1cccc2cnccc12 (stereo partly drawn)		102	107	EC50 [4]: 74.1 nM; EC50 ([5]; read-out: EC50): 10000 nM; Kd ([1]; read-out: pKd (converted)): 1350 nM; EC50 ([6]; read-out: EC50): 10000 nM
CC(=O)Nc1ccc(CCNC[C@H](O)COc2ccc3ccc(=O)oc3c2)cc1	> 10000			Kd ([3]; read-out: Kd): > 10000 nM
CCc1ccccc1OC[C@@H](O)CN[C@H]1CCCc2ccccc21			3.8	EC50 ([5]; read-out: pEC50 (converted)): 191 nM; Kd ([1]; read-out: pKd (converted)): 69.2 nM; EC50 ([6]; read-out: pEC50 (converted)): 8.71 nM
COc1ccc(S(=O)(=O)NCCCCCCNC[C@H](O)COc2ccc3ccc(=O)oc3c2)cc1	> 10000			
CC1(C)CC(=O)c2ccc(OC[C@H](O)CNCCCN3C(=O)c4ccccc4C3=O)cc2O1				Kd ([2]; read-out: Kd): > 10000 nM
CC(=O)NCc1cccc(OC[C@@H](O)CNCCc2ccc(NS(=O)(=O)c3ccccc3)cc2)c1		339	74.1	EC50 [4]: 380 nM; EC50 ([5]; read-out: pEC50 (converted)): 4.47 nM; Kd ([1]; read-out: pKd (converted)): 6.76 nM; EC50 ([6]; read-out: EC50): 10000 nM
